What was measured:
[1] = tested on: passive cutaneous anaphylaxis (PCA); assay: Inhibition of passive cutaneous anaphylaxis (PCA) in rats; type: in vivo, Sprague-Dawley rats; details: Rattus norvegicus, 1 h, 2 × 10^-5 mole/kg per os, one hour before ovalbumin challenge
Experimental: (§1) 1. Determining Inhibition of Passive Cutaneous Anaphylaxis (PCA) and Histamine-Induced Anaphylactoid Cutaneous Reaction
The PCA reaction is carried out following the methods described by Goose et al. (J. N. Immunology 16 (1969), 749) and by Martin et al. (Arch. Pharmacol. 316 (1981), 186).
The IgE-rich ovalbumin antiserum used in the test was obtained from immunized Brown-Norway rats. The were immunized with an intraperitoneal injection of a mixture of 100 μg of ovalbumin with a Bordetella pertussis suspension (Vaxicoq™, Manufactured by Institute Merieux, containing 5×10^9 organisms and 1.25 mg Al(OH)3). After 20 days the animals were re-immunized with a further intraperitoneal injection of a solution of 10 μg ovalbumin in 0.5 ml physiological saline solution. After a further four days the blood was removed from the animals and centrifuged. The resulting antiserum was stored at -20° C. until use.
(§2) The inhibition of the passive cutaneous anaphylaxis and of the anaphylactoid cutaneous reaction induced by histamine was determined as follows:
(§3) Sprague-Dawley rats having a body weight of 150-180 g were injected intradermally in one flank with 50 μl of a 1:75 dilution of the IgE-rich ovalbumin antiserum in physiological saline solution to passively sensitize them to ovalbumin.
(§4) 24 hours after sensitization a solution of 8.25 mg/kg of ovalbumin and 26.4 mg/kg of a blue dye (Evans's Blue) was administered to the rats intravenously according to Martin et al. to trigger passive cutaneous anaphylaxis.
(§5) On the day of the experiment the test substances were dissolved in distilled water which contained 1 vol. % dimethylformamide and 1 vol. % of Tween™ 20 (=polyoxyethylene (20) sorbitan monolaurate). One hour before administration of the ovalbumin challenge, each animal was orally administered 2×10^-5 mole/kg of test substance in 0.5 ml of solution. For comparison purposes a control group received only the solvent.
(§6) The edematous anaphylactic (PCA) and anaphylactoid (histamine-induced) reactions caused by the stimulation of the intravenous ovalbumin injection, which manifested themselves by edema formation, swelling and exudation of blue dye, were evaluated 30 minutes after their initiation by the intravenous ovalbumin injection. This was done by visually determining the extent to which the blue dye emerged at the sites of edema formation. The percentage inhibition of anaphylactic and anaphylactoid reactions induced by the test substances in comparison with the reactions of the control animals not treated with any test substance was determined using comparison scales.
(§7) The results obtained using compounds of formula I according to the foregoing test methods are shown in the following Table A. The example numbers given for the compounds of formula I relate to the subsequent preparative examples.

[2] = tested on: histamine-induced anaphylactoid cutaneous reaction; assay: Inhibition of histamine-induced anaphylactoid cutaneous reaction in rats; type: in vivo, Sprague-Dawley rats; details: Rattus norvegicus, 1 h, 2 × 10^-5 mole/kg per os, one hour before ovalbumin challenge
Experimental: as §1, §2, §3, §4
To determine the histamine-induced anaphylactoid skin reaction, the animals are injected intradermally in the flank opposite to the antiserum administration with 50 μl of a physiological saline solution containing 0.8 mg/ml histamine directly before the intravenous injection of the solution containing the ovalbumin and the blue dye.
as §5, §6, §7

[3] = tested on: PAF-induced aggregation of rabbit blood platelets; assay: Anti-PAF activity in vitro, PAF-induced platelet aggregation; type: cell-based, rabbit (New Zealand hybrids); details: Oryctolagus cuniculus, test substance 10^-5 mole/l, pH 7.4
Source text: 4. Determination of Anti-PAF Activity In Vitro
PAF (=Platelet Activating Factor) is a phospholipid mediator which has many effects. Activation of platelet aggregation induces protracted broncho-contraction and hyper-reactivity of the air paths.
In this test the effect of the test substances on platelet aggregation induced by adding PAF to a suspension of platelets obtained from rabbit blood is investigated using the method described by Mikashima et al. (Jap. J. Pharmacol. 44 (1987) 387-391).
A suspension of platelets obtained from rabbit blood containing 4×10^9 platelets/ml in a modified Tyrode buffer solution (=Tyrode solution with 1.3 mM/l CaCl2 and 2.5 g/l gelatine added) adjusted to pH 7.4 was used. Tyrode solution is an aqueous solution containing 136.9 mmoles NaCl, 2.68 mmoles KCl, 2.31 mmoles CaCl2, 1.0 mmole MgCl2, 11.9 mmoles NaHCO3, 1.45 mmoles NaH2 PO4 and 5.55 mmoles glucose per liter. The platelets were obtained from 10 ml blood samples from each of three rabbits (New Zealand hybrids, body weight 3-4 kg). For this the blood samples were treated with ethylenediamine tetraacetic acid and washed according to the method of Artley et al. (Brit. J. Hematol. 19 (1970), 7-17). A platelet-rich plasma was then initially separated by centrifuging (20 minutes at 400×g). The blood platelets were separated from the plasma by recentrifuging for 15 minutes at 1,400×g. The platelets remaining as sediment after centrifuging were resuspended in a Tyrode buffer solution (but without calcium). 0.4 mmole of lysine acetylsalicylate was then added, and after 15 minutes the platelets were sedimented again. The sediment was resuspended in the aforementioned modified Tyrode buffer solution, and the number of platelets in the resulting suspension was adjusted to the desired content.
A 40×10^-9 molar PAF solution was used as a reagent. This solution was made from a 1.8×10^-3 molar stock solution in chloroform. For this purpose a 10 μl sample of the stock solution was evaporated to dryness and redissolved in 180 μl of the modified Tyrode solution to which 0.25% of lipid-free bovine serum albumin had been added. From this 10^-5 molar working solutions were then prepared and stored frozen. Samples of these solutions were appropriately diluted for the tests.
To carry out the test 50 μl of the platelet suspension and 10 μl of a 40×10^-5 molar solution of the compound being investigated were added with stirring (1,000 rpm) to 330 μl of the modified Tyrode buffer solution in an aggregation tube provided with a small magnetic stirrer. This corresponds to a final test substance concentration of 10^-5 mole/l. After 90 seconds preincubation time, 10 μl of the PAF preparation were added. The aggregation occurring in the aggregation tubes was measured over 4-5 minutes with the aid of a computerized aggregometer.
The aggregation which occurred in test tubes containing only platelet suspension was evaluated as 0%, whereas the aggregation which occurred in test tubes containing platelet suspension and PAF preparation was evaluated as 100%. The aggregation which still occurred during the inhibition of the PAF induced platelet aggregation due to the addition of the test substances was measured, and the resulting aggregation inhibition was calculated therefrom in %.

| SMILES | inhibition in vivo at 20 µmol/kg [1] | inhibition in vivo at 20 µmol/kg [2] | inhibition at 10 µM [3] |
| --- | --- | --- | --- |
| Cc1ccnc(N2CCN(CCCC3Sc4ccccc4NC3=S)CC2)c1 (stereo not drawn) [Example 11] | 55% | 20% | 96% |
| Cc1ccnc(N2CCN(CCCC3Oc4ccccc4NC3=O)CC2)c1 (stereo not drawn) [Example 9] | 60% | 30% | 51% |
| Cc1ccnc(N2CCN(CCCCC3Oc4ccccc4NC3=O)CC2)c1 (stereo not drawn) [Example 7] | 70% | 40% | – |
| O=C1Nc2ccccc2SC1CCCN1CCN(c2ccc(Cl)cn2)CC1 (stereo not drawn) [Example 15] | 60% | 30% | – |
| Cc1ccnc(N2CCN(CCCC3Sc4ccccc4NC3=O)CC2)c1 (stereo not drawn) [Example 8] | 73% | 60% | 48% |
| Cc1ccnc(N2CCN(CCCCC3Sc4ccccc4NC3=O)CC2)c1 (stereo not drawn) [Example 1, 2-{4-[4-(4-methylpyridin-2-yl)-piperazin-1-yl]butyl}-2H-1,4-benzothiazine-3(4H)-one] | 88% | 55% | – |

Reference: patent US5332733A, “Heterocyclically substituted piperazinoakylbenzoxazine and piperazinoalkylbenzothiazine compounds, processes for preparing them, and medicaments containing them” (Kali-Chemie Pharma GmbH, priority 1990, dated 1994)
